Laboratory results: US6673812B1, “Preventives/remedies for glaucoma” (Senju Pharmaceutical Co., Ltd., priority 1998, dated 2004)

Tested on: Japanese white rabbits
Experiment: Ophthalmic disorder caused by 8-time-a-day instillation to white rabbits: macroscopic observation of anterior segment of the eye
Format: in vivo, rabbit
Parameters: scale not given here
Details: mean of three eyes
Experimental: The test drugs, Compound A and Compound C, were each dissolved in the following base at a concentration of 0.125, 0.25, 0.5 and 1.0% and adjusted to pH 7 for use in this experiment. [table] Japanese white rabbits (body weight about 2 kg) purchased from Japan Laboratory Animals, INC. were used. These animals were bred in a breeding chamber set to temperature 23±3° C., humidity 55±10% and fed on limited amount of 100 g a day of a solid feed (Labo R Stock, Nihon-Nosan Kogyo K.K.). They were allowed free access to tap water. Instillation: Using a micropipet, each test drug (100 μl) was instilled into the right eye of each animal 8 times at one hour intervals. Into the left eye was instilled a base in the same manner. Observation: anterior segment of the eye was macroscopically observed before instillation and 30 min after 2nd, 4th, 6th and 8th administrations, according to the macroscopic criteria for ocular lesions as shown in Table 1 (Naruyuki Fukui, […] no Rinshou 4, 277-289, 1970). In addition, corneal staining spot was observed before instillation and after 8th administration. [table]

[1] = 0.125%, 30 min after 2nd instillation
[2] = 0.125%, 30 min after 4th instillation
[3] = 0.125%, 30 min after 6th instillation
[4] = 0.125%, 30 min after 8th instillation
[5] = 0.25%, 30 min after 2nd instillation
[6] = 0.25%, 30 min after 4th instillation
[7] = 0.25%, 30 min after 6th instillation
[8] = 0.25%, 30 min after 8th instillation
[9] = 0.5%, 30 min after 2nd instillation
[10] = 0.5%, 30 min after 4th instillation
[11] = 0.5%, 30 min after 6th instillation
[12] = 0.5%, 30 min after 8th instillation
[13] = 1.0%, 30 min after 2nd instillation
[14] = 1.0%, 30 min after 4th instillation
[15] = 1.0%, 30 min after 6th instillation
[16] = 1.0%, 30 min after 8th instillation

- Score of ocular lesions: Conjunctiva Bulbar redness [1]: 0
- Score of ocular lesions: Conjunctiva Discharge [1]: 0
- Score of ocular lesions: Conjunctiva Nictitating membrane [1]: 0
- Score of ocular lesions: Conjunctiva Palpebral edema [1]: 0
- Score of ocular lesions: Conjunctiva Palpebral redness [1]: 0
- Score of ocular lesions: Cornea Area [1]: 0
- Score of ocular lesions: Cornea Degree [1]: 0
- Score of ocular lesions: Iris Values [1]: 0
- Score of ocular lesions: Total score [1]: 0
- Score of ocular lesions: Conjunctiva Bulbar redness [2]: 0.50
- Score of ocular lesions: Conjunctiva Discharge [2]: 0.17
- Score of ocular lesions: Conjunctiva Nictitating membrane [2]: 0.33
- Score of ocular lesions: Conjunctiva Palpebral edema [2]: 0
- Score of ocular lesions: Conjunctiva Palpebral redness [2]: 0
- Score of ocular lesions: Cornea Area [2]: 0
- Score of ocular lesions: Cornea Degree [2]: 0
- Score of ocular lesions: Iris Values [2]: 0
- Score of ocular lesions: Total score [2]: 0.83
- Score of ocular lesions: Conjunctiva Bulbar redness [3]: 0.17
- Score of ocular lesions: Conjunctiva Discharge [3]: 0.50
- Score of ocular lesions: Conjunctiva Nictitating membrane [3]: 0.33
- Score of ocular lesions: Conjunctiva Palpebral edema [3]: 0.17
- Score of ocular lesions: Conjunctiva Palpebral redness [3]: 0.17
- Score of ocular lesions: Cornea Area [3]: 0
- Score of ocular lesions: Cornea Degree [3]: 0
- Score of ocular lesions: Iris Values [3]: 0
- Score of ocular lesions: Total score [3]: 0.84
- Score of ocular lesions: Conjunctiva Bulbar redness [4]: 0.50
- Score of ocular lesions: Conjunctiva Discharge [4]: 0
- Score of ocular lesions: Conjunctiva Nictitating membrane [4]: 0.50
- Score of ocular lesions: Conjunctiva Palpebral edema [4]: 0.33
- Score of ocular lesions: Conjunctiva Palpebral redness [4]: 0.33
- Score of ocular lesions: Cornea Area [4]: 0
- Score of ocular lesions: Cornea Degree [4]: 0
- Score of ocular lesions: Iris Values [4]: 0
- Score of ocular lesions: Total score [4]: 1.66
- Score of ocular lesions: Conjunctiva Bulbar redness (0.125%, Before instillation): 0
- Score of ocular lesions: Conjunctiva Discharge (0.125%, Before instillation): 0
- Score of ocular lesions: Conjunctiva Nictitating membrane (0.125%, Before instillation): 0
- Score of ocular lesions: Conjunctiva Palpebral edema (0.125%, Before instillation): 0
- Score of ocular lesions: Conjunctiva Palpebral redness (0.125%, Before instillation): 0
- Score of ocular lesions: Cornea Area (0.125%, Before instillation): 0
- Score of ocular lesions: Cornea Degree (0.125%, Before instillation): 0
- Score of ocular lesions: Iris Values (0.125%, Before instillation): 0
- Score of ocular lesions: Total score (0.125%, Before instillation): 0
- Score of ocular lesions: Conjunctiva Bulbar redness [5]: 0.33
- Score of ocular lesions: Conjunctiva Discharge [5]: 0
- Score of ocular lesions: Conjunctiva Nictitating membrane [5]: 0.33
- Score of ocular lesions: Conjunctiva Palpebral edema [5]: 0
- Score of ocular lesions: Conjunctiva Palpebral redness [5]: 0
- Score of ocular lesions: Cornea Area [5]: 0
- Score of ocular lesions: Cornea Degree [5]: 0
- Score of ocular lesions: Iris Values [5]: 0
- Score of ocular lesions: Total score [5]: 0.66
- Score of ocular lesions: Conjunctiva Bulbar redness [6]: 0.33
- Score of ocular lesions: Conjunctiva Discharge [6]: 0
- Score of ocular lesions: Conjunctiva Nictitating membrane [6]: 0.50
- Score of ocular lesions: Conjunctiva Palpebral edema [6]: 0
- Score of ocular lesions: Conjunctiva Palpebral redness [6]: 0.33
- Score of ocular lesions: Cornea Area [6]: 0
- Score of ocular lesions: Cornea Degree [6]: 0
- Score of ocular lesions: Iris Values [6]: 0
- Score of ocular lesions: Total score [6]: 1.50
- Score of ocular lesions: Conjunctiva Bulbar redness [7]: 0.50
- Score of ocular lesions: Conjunctiva Discharge [7]: 0.67
- Score of ocular lesions: Conjunctiva Nictitating membrane [7]: 0.33
- Score of ocular lesions: Conjunctiva Palpebral edema [7]: 0.17
- Score of ocular lesions: Conjunctiva Palpebral redness [7]: 0.33
- Score of ocular lesions: Cornea Area [7]: 0
- Score of ocular lesions: Cornea Degree [7]: 0
- Score of ocular lesions: Iris Values [7]: 0
- Score of ocular lesions: Total score [7]: 2.83
- Score of ocular lesions: Conjunctiva Bulbar redness [8]: 0.67
- Score of ocular lesions: Conjunctiva Discharge [8]: 1.00
- Score of ocular lesions: Conjunctiva Nictitating membrane [8]: 1.33
- Score of ocular lesions: Conjunctiva Palpebral edema [8]: 0
- Score of ocular lesions: Conjunctiva Palpebral redness [8]: 0
- Score of ocular lesions: Cornea Area [8]: 0
- Score of ocular lesions: Cornea Degree [8]: 0
- Score of ocular lesions: Iris Values [8]: 0
- Score of ocular lesions: Total score [8]: 3.00
- Score of ocular lesions: Conjunctiva Bulbar redness (0.25%, Before instillation): 0
- Score of ocular lesions: Conjunctiva Discharge (0.25%, Before instillation): 0
- Score of ocular lesions: Conjunctiva Nictitating membrane (0.25%, Before instillation): 0
- Score of ocular lesions: Conjunctiva Palpebral edema (0.25%, Before instillation): 0
- Score of ocular lesions: Conjunctiva Palpebral redness (0.25%, Before instillation): 0
- Score of ocular lesions: Cornea Area (0.25%, Before instillation): 0
- Score of ocular lesions: Cornea Degree (0.25%, Before instillation): 0
- Score of ocular lesions: Iris Values (0.25%, Before instillation): 0
- Score of ocular lesions: Total score (0.25%, Before instillation): 0
- Score of ocular lesions: Conjunctiva Bulbar redness [9]: 0.50
- Score of ocular lesions: Conjunctiva Discharge [9]: 0
- Score of ocular lesions: Conjunctiva Nictitating membrane [9]: 0.50
- Score of ocular lesions: Conjunctiva Palpebral edema [9]: 0
- Score of ocular lesions: Conjunctiva Palpebral redness [9]: 0
- Score of ocular lesions: Cornea Area [9]: 0
- Score of ocular lesions: Cornea Degree [9]: 0
- Score of ocular lesions: Iris Values [9]: 0
- Score of ocular lesions: Total score [9]: 1.00
- Score of ocular lesions: Conjunctiva Bulbar redness [10]: 0.50
- Score of ocular lesions: Conjunctiva Discharge [10]: 0.17
- Score of ocular lesions: Conjunctiva Nictitating membrane [10]: 0.33
- Score of ocular lesions: Conjunctiva Palpebral edema [10]: 0.33
- Score of ocular lesions: Conjunctiva Palpebral redness [10]: 0.33
- Score of ocular lesions: Cornea Area [10]: 0
- Score of ocular lesions: Cornea Degree [10]: 0
- Score of ocular lesions: Iris Values [10]: 0.33
- Score of ocular lesions: Total score [10]: 1.99
- Score of ocular lesions: Conjunctiva Bulbar redness [11]: 0.67
- Score of ocular lesions: Conjunctiva Discharge [11]: 1.00
- Score of ocular lesions: Conjunctiva Nictitating membrane [11]: 1.00
- Score of ocular lesions: Conjunctiva Palpebral edema [11]: 0.33
- Score of ocular lesions: Conjunctiva Palpebral redness [11]: 0.33
- Score of ocular lesions: Cornea Area [11]: 0
- Score of ocular lesions: Cornea Degree [11]: 0
- Score of ocular lesions: Iris Values [11]: 0
- Score of ocular lesions: Total score [11]: 3.83
- Score of ocular lesions: Conjunctiva Bulbar redness [12]: 1.00
- Score of ocular lesions: Conjunctiva Discharge [12]: 2.00
- Score of ocular lesions: Conjunctiva Nictitating membrane [12]: 1.00
- Score of ocular lesions: Conjunctiva Palpebral edema [12]: 2.83
- Score of ocular lesions: Conjunctiva Palpebral redness [12]: 2.00
- Score of ocular lesions: Cornea Area [12]: 0
- Score of ocular lesions: Cornea Degree [12]: 0
- Score of ocular lesions: Iris Values [12]: 0.67
- Score of ocular lesions: Total score [12]: 9.50
- Score of ocular lesions: Conjunctiva Bulbar redness (0.5%, Before instillation): 0
- Score of ocular lesions: Conjunctiva Discharge (0.5%, Before instillation): 0
- Score of ocular lesions: Conjunctiva Nictitating membrane (0.5%, Before instillation): 0
- Score of ocular lesions: Conjunctiva Palpebral edema (0.5%, Before instillation): 0
- Score of ocular lesions: Conjunctiva Palpebral redness (0.5%, Before instillation): 0
- Score of ocular lesions: Cornea Area (0.5%, Before instillation): 0
- Score of ocular lesions: Cornea Degree (0.5%, Before instillation): 0
- Score of ocular lesions: Iris Values (0.5%, Before instillation): 0
- Score of ocular lesions: Total score (0.5%, Before instillation): 0
- Score of ocular lesions: Conjunctiva Bulbar redness [13]: 0.50
- Score of ocular lesions: Conjunctiva Discharge [13]: 0
- Score of ocular lesions: Conjunctiva Nictitating membrane [13]: 0.50
- Score of ocular lesions: Conjunctiva Palpebral edema [13]: 0
- Score of ocular lesions: Conjunctiva Palpebral redness [13]: 0.17
- Score of ocular lesions: Cornea Area [13]: 0
- Score of ocular lesions: Cornea Degree [13]: 0
- Score of ocular lesions: Iris Values [13]: 0
- Score of ocular lesions: Total score [13]: 1.17
- Score of ocular lesions: Conjunctiva Bulbar redness [14]: 0.50
- Score of ocular lesions: Conjunctiva Discharge [14]: 0
- Score of ocular lesions: Conjunctiva Nictitating membrane [14]: 0.50
- Score of ocular lesions: Conjunctiva Palpebral edema [14]: 0.17
- Score of ocular lesions: Conjunctiva Palpebral redness [14]: 0.50
- Score of ocular lesions: Cornea Area [14]: 0
- Score of ocular lesions: Cornea Degree [14]: 0
- Score of ocular lesions: Iris Values [14]: 0.67
- Score of ocular lesions: Total score [14]: 2.34
- Score of ocular lesions: Conjunctiva Bulbar redness [15]: 0.67
- Score of ocular lesions: Conjunctiva Discharge [15]: 0.33
- Score of ocular lesions: Conjunctiva Nictitating membrane [15]: 0.83
- Score of ocular lesions: Conjunctiva Palpebral edema [15]: 0.50
- Score of ocular lesions: Conjunctiva Palpebral redness [15]: 0.50
- Score of ocular lesions: Cornea Area [15]: 0
- Score of ocular lesions: Cornea Degree [15]: 0
- Score of ocular lesions: Iris Values [15]: 1.00
- Score of ocular lesions: Total score [15]: 3.83
- Score of ocular lesions: Conjunctiva Bulbar redness [16]: 2.00
- Score of ocular lesions: Conjunctiva Discharge [16]: 2.33
- Score of ocular lesions: Conjunctiva Nictitating membrane [16]: 1.67
- Score of ocular lesions: Conjunctiva Palpebral edema [16]: 3.33
- Score of ocular lesions: Conjunctiva Palpebral redness [16]: 2.33
- Score of ocular lesions: Cornea Area [16]: 0
- Score of ocular lesions: Cornea Degree [16]: 0
- Score of ocular lesions: Iris Values [16]: 1.00
- Score of ocular lesions: Total score [16]: 12.66
- Score of ocular lesions: Conjunctiva Bulbar redness (1.0%, Before instillation): 0
- Score of ocular lesions: Conjunctiva Discharge (1.0%, Before instillation): 0
- Score of ocular lesions: Conjunctiva Nictitating membrane (1.0%, Before instillation): 0
- Score of ocular lesions: Conjunctiva Palpebral edema (1.0%, Before instillation): 0
- Score of ocular lesions: Conjunctiva Palpebral redness (1.0%, Before instillation): 0
- Score of ocular lesions: Cornea Area (1.0%, Before instillation): 0
- Score of ocular lesions: Cornea Degree (1.0%, Before instillation): 0
- Score of ocular lesions: Iris Values (1.0%, Before instillation): 0
- Score of ocular lesions: Total score (1.0%, Before instillation): 0
SMILES: C[C@@H](N)c1ccc(C(=O)Nc2ccncc2)cc1.Cl.Cl [Compound C, (R)-(+)-N-(4-pyridyl)-4-(1-aminoethyl)benzamide 2HCl]
